Key:
[1] = xn = mol fraction of the nth substance listed; settings: 298.15 K, 101 kPa, Liquid
[2] = excess molar enthalpy (molar enthalpy of mixing); xn = mol fraction of the nth substance listed; settings: 298.15 K, 101 kPa, Liquid

BrCCBr [1,2-dibromoethane] + CCC(=O)OC
Settings	excess molar enthalpy [kJ/mol]	mass density [kg/m3]
[1], x2 = 0.0544	–	2090.48
[1], x2 = 0.1086	–	2015.14
[1], x2 = 0.1617	–	1942.18
[1], x2 = 0.213	–	1872.81
[1], x2 = 0.2714	–	1794.99
[1], x2 = 0.3254	–	1724.12
[1], x2 = 0.4447	–	1570.72
[1], x2 = 0.5056	–	1494.18
[1], x2 = 0.561	–	1425.55
[1], x2 = 0.6166	–	1357.57
[1], x2 = 0.6838	–	1276.41
[1], x2 = 0.743	–	1205.94
[1], x2 = 0.8086	–	1129
[1], x2 = 0.8715	–	1056.36
[1], x2 = 0.9358	–	982.68
[2], x1 = 0.0552	0.0448	–
[2], x1 = 0.1177	0.0696	–
[2], x1 = 0.18	0.0864	–
[2], x1 = 0.2446	0.09	–
[2], x1 = 0.3072	0.0851	–
[2], x1 = 0.3659	0.075	–
[2], x1 = 0.4203	0.059	–
[2], x1 = 0.4702	0.0393	–
[2], x1 = 0.4789	0.0275	–
[2], x1 = 0.5086	0.0195	–
[2], x1 = 0.5255	0.0103	–
[2], x1 = 0.5837	-0.0105	–
[2], x1 = 0.6456	-0.0215	–
[2], x1 = 0.7119	-0.0257	–
[2], x1 = 0.7852	-0.0281	–
[2], x1 = 0.8597	-0.0229	–
[2], x1 = 0.9321	-0.012	–

BrCCBr [1,2-dibromoethane] + CCCC(=O)OC
Settings	excess molar enthalpy [kJ/mol]	mass density [kg/m3]
[1], x2 = 0.0456	–	2090.91
[1], x2 = 0.0934	–	2013.52
[1], x2 = 0.138	–	1943.4
[1], x2 = 0.1885	–	1866.04
[1], x2 = 0.2437	–	1784.45
[1], x2 = 0.2925	–	1714.77
[1], x2 = 0.3454	–	1641.47
[1], x2 = 0.4047	–	1562.1
[1], x2 = 0.5193	–	1415.94
[1], x2 = 0.5812	–	1340.87
[1], x2 = 0.6461	–	1264.87
[1], x2 = 0.7118	–	1190.49
[1], x2 = 0.7767	–	1119.58
[1], x2 = 0.8458	–	1046.47
[1], x2 = 0.9209	–	970.06
[2], x2 = 0.0509	0.0205	–
[2], x2 = 0.1042	0.0323	–
[2], x2 = 0.1621	0.0359	–
[2], x2 = 0.2266	0.0313	–
[2], x2 = 0.2928	0.0175	–
[2], x2 = 0.3635	-0.0036	–
[2], x2 = 0.4243	-0.0281	–
[2], x2 = 0.4796	-0.0481	–
[2], x2 = 0.537	-0.0618	–
[2], x2 = 0.6008	-0.0691	–
[2], x2 = 0.6755	-0.0704	–
[2], x2 = 0.7537	-0.0638	–
[2], x2 = 0.8373	-0.0493	–
[2], x2 = 0.9188	-0.0296	–

BrCCBr [1,2-dibromoethane] + CCCCC(=O)OC
Settings	excess molar enthalpy [kJ/mol]	mass density [kg/m3]
[1], x2 = 0.0413	–	2086.33
[1], x2 = 0.0834	–	2009.4
[1], x2 = 0.1257	–	1934.54
[1], x2 = 0.1717	–	1857.45
[1], x2 = 0.2221	–	1776.23
[1], x2 = 0.2644	–	1711.22
[1], x2 = 0.3124	–	1640.62
[1], x2 = 0.3717	–	1557.38
[1], x2 = 0.4812	–	1414.72
[1], x2 = 0.5471	–	1335.17
[1], x2 = 0.6142	–	1258.34
[1], x2 = 0.6822	–	1184.61
[1], x2 = 0.755	–	1109.85
[1], x2 = 0.833	–	1033.97
[1], x2 = 0.9091	–	963.97
[2], x2 = 0.0457	0.0093	–
[2], x2 = 0.1054	0.0151	–
[2], x2 = 0.1756	0.0121	–
[2], x2 = 0.2495	-0.0032	–
[2], x2 = 0.3112	-0.0247	–
[2], x2 = 0.3523	-0.0428	–
[2], x2 = 0.3893	-0.0588	–
[2], x2 = 0.4631	-0.0768	–
[2], x2 = 0.5105	-0.0861	–
[2], x2 = 0.5845	-0.0906	–
[2], x2 = 0.6874	-0.0827	–
[2], x2 = 0.7978	-0.0624	–
[2], x2 = 0.9098	-0.0337	–

BrCCBr [1,2-dibromoethane] + COC(C)=O
Settings	excess molar enthalpy [kJ/mol]	mass density [kg/m3]
[1], x2 = 0.0644	–	2093.03
[1], x2 = 0.1265	–	2019.85
[1], x2 = 0.186	–	1949.51
[1], x2 = 0.2463	–	1877.44
[1], x2 = 0.3093	–	1801.67
[1], x2 = 0.3675	–	1731.26
[1], x2 = 0.4309	–	1653.78
[1], x2 = 0.4879	–	1583.49
[1], x2 = 0.5507	–	1505.69
[1], x2 = 0.6003	–	1443.71
[1], x2 = 0.7248	–	1286.24
[1], x2 = 0.7776	–	1218.54
[1], x2 = 0.8338	–	1146.14
[1], x2 = 0.8868	–	1076.96
[1], x2 = 0.9443	–	1001.13
[2], x2 = 0.0678	0.0977	–
[2], x2 = 0.1329	0.167	–
[2], x2 = 0.2086	0.225	–
[2], x2 = 0.2791	0.259	–
[2], x2 = 0.3449	0.279	–
[2], x2 = 0.4079	0.284	–
[2], x2 = 0.4651	0.274	–
[2], x2 = 0.5145	0.258	–
[2], x2 = 0.5219	0.254	–
[2], x2 = 0.559	0.238	–
[2], x2 = 0.5731	0.23	–
[2], x2 = 0.6281	0.199	–
[2], x2 = 0.6875	0.161	–
[2], x2 = 0.7492	0.12	–
[2], x2 = 0.8149	0.087	–
[2], x2 = 0.8808	0.0509	–
[2], x2 = 0.9429	0.0264	–

BrCCBr [1,2-dibromoethane] + COC=O
Settings	excess molar enthalpy [kJ/mol]	mass density [kg/m3]
[1], x2 = 0.0941	–	2084.41
[1], x2 = 0.1513	–	2030.58
[1], x2 = 0.2019	–	1980.75
[1], x2 = 0.251	–	1931.96
[1], x2 = 0.2967	–	1881.94
[1], x2 = 0.3904	–	1784.54
[1], x2 = 0.4985	–	1662.03
[1], x2 = 0.5973	–	1543.27
[1], x2 = 0.7057	–	1404.1
[1], x2 = 0.7483	–	1346.2
[1], x2 = 0.7967	–	1278.68
[1], x2 = 0.8478	–	1205.01
[1], x2 = 0.8808	–	1155.98
[1], x2 = 0.9402	–	1064.28
[2], x2 = 0.0726	0.235	–
[2], x2 = 0.1528	0.47	–
[2], x2 = 0.2426	0.653	–
[2], x2 = 0.3298	0.749	–
[2], x2 = 0.4034	0.795	–
[2], x2 = 0.4719	0.812	–
[2], x2 = 0.5315	0.802	–
[2], x2 = 0.5856	0.773	–
[2], x2 = 0.6347	0.732	–
[2], x2 = 0.6786	0.681	–
[2], x2 = 0.7171	0.627	–
[2], x2 = 0.7759	0.531	–
[2], x2 = 0.8639	0.355	–
[2], x2 = 0.9405	0.172	–

BrCCCBr [1,3-dibromopropane] + CCC(=O)OC
Settings	excess molar enthalpy [kJ/mol]	mass density [kg/m3]
[1], x2 = 0.059	–	1909.4
[1], x2 = 0.1261	–	1841.06
[1], x2 = 0.1889	–	1776.8
[1], x2 = 0.243	–	1720.78
[1], x2 = 0.3657	–	1593.37
[1], x2 = 0.4328	–	1523.29
[1], x2 = 0.4901	–	1462.96
[1], x2 = 0.5464	–	1403.57
[1], x2 = 0.6165	–	1328.98
[1], x2 = 0.7214	–	1216.43
[1], x2 = 0.7712	–	1162.65
[1], x2 = 0.8235	–	1105.81
[1], x2 = 0.8863	–	1037.06
[1], x2 = 0.9375	–	980.57
[2], x2 = 0.0646	0.0699	–
[2], x2 = 0.1354	0.114	–
[2], x2 = 0.2107	0.142	–
[2], x2 = 0.2845	0.155	–
[2], x2 = 0.3517	0.153	–
[2], x2 = 0.4137	0.141	–
[2], x2 = 0.4627	0.125	–
[2], x2 = 0.4703	0.123	–
[2], x2 = 0.5077	0.111	–
[2], x2 = 0.5202	0.103	–
[2], x2 = 0.5574	0.0929	–
[2], x2 = 0.566	0.0847	–
[2], x2 = 0.6073	0.0653	–
[2], x2 = 0.6129	0.0576	–
[2], x2 = 0.6726	0.0311	–
[2], x2 = 0.7385	0.0021	–
[2], x2 = 0.8065	-0.0135	–
[2], x2 = 0.873	-0.0147	–
[2], x2 = 0.9388	-0.009	–

BrCCCBr [1,3-dibromopropane] + CCCC(=O)OC
Settings	excess molar enthalpy [kJ/mol]	mass density [kg/m3]
[1], x2 = 0.0527	–	1904.53
[1], x2 = 0.1033	–	1844.63
[1], x2 = 0.1625	–	1775.48
[1], x2 = 0.2135	–	1716.63
[1], x2 = 0.268	–	1654.61
[1], x2 = 0.3273	–	1588.07
[1], x2 = 0.3844	–	1524.77
[1], x2 = 0.4397	–	1464.34
[1], x2 = 0.4966	–	1402.92
[1], x2 = 0.5597	–	1335.77
[1], x2 = 0.6194	–	1273.09
[1], x2 = 0.6773	–	1213.28
[1], x2 = 0.7401	–	1149.07
[1], x2 = 0.8089	–	1079.72
[1], x2 = 0.8623	–	1026.6
[1], x2 = 0.9397	–	950.76
[2], x2 = 0.0571	0.033	–
[2], x2 = 0.1319	0.0568	–
[2], x2 = 0.2164	0.07	–
[2], x2 = 0.3018	0.0682	–
[2], x2 = 0.3823	0.0527	–
[2], x2 = 0.4559	0.0283	–
[2], x2 = 0.5207	-0.0008	–
[2], x2 = 0.5371	-0.0136	–
[2], x2 = 0.5718	-0.0228	–
[2], x2 = 0.6497	-0.0409	–
[2], x2 = 0.7433	-0.0455	–
[2], x2 = 0.8389	-0.04	–
[2], x2 = 0.9316	-0.0214	–

BrCCCBr [1,3-dibromopropane] + CCCCC(=O)OC
Settings	excess molar enthalpy [kJ/mol]	mass density [kg/m3]
[1], x2 = 0.0534	–	1896.4
[1], x2 = 0.0937	–	1841.97
[1], x2 = 0.1477	–	1771.31
[1], x2 = 0.188	–	1720.07
[1], x2 = 0.2439	–	1650.83
[1], x2 = 0.2975	–	1586.35
[1], x2 = 0.3439	–	1532.03
[1], x2 = 0.4116	–	1455.16
[1], x2 = 0.4656	–	1395.81
[1], x2 = 0.5216	–	1335.88
[1], x2 = 0.5922	–	1262.69
[1], x2 = 0.6481	–	1206.41
[1], x2 = 0.7047	–	1151.1
[1], x2 = 0.7835	–	1076.35
[1], x2 = 0.8493	–	1016.07
[1], x2 = 0.9201	–	953.2
[2], x2 = 0.0492	0.0239	–
[2], x2 = 0.1163	0.0387	–
[2], x2 = 0.1938	0.0407	–
[2], x2 = 0.2736	0.0321	–
[2], x2 = 0.338	0.0176	–
[2], x2 = 0.41	-0.0099	–
[2], x2 = 0.4582	-0.0311	–
[2], x2 = 0.4998	-0.047	–
[2], x2 = 0.5481	-0.0609	–
[2], x2 = 0.6786	-0.0662	–
[2], x2 = 0.7994	-0.0551	–
[2], x2 = 0.9065	-0.0355	–
